# Test system: human patient-derived xenograft (PDX) derived from a human ovarian tumor (CTG-1180, Champions Oncology)
# Assay: In vivo xenograft efficacy (human ovarian tumor PDX) in tumor-bearing mice
# Parameters: species or system Athymic Nude-Foxn1nu mice
# Experimental: A nanoparticle composition comprising Compound 1 and albumin from Example 2 was tested in an in vivo xenograft efficacy model in tumor-bearing mice. Athymic Nude-Foxn1nu mice were implanted subcutaneously with a human patient-derived xenograft (PDX) derived from a human ovarian tumor (CTG-1180, Champions Oncology). Tumors were allowed grow to ˜200 cubic mm before commencement of treatment (day 0). Lyophilized nanoparticle formulations of Compound 1 were rehydrated in 5% dextrose in sterile water (D5W) immediately prior to dosing. Mice were then dosed intravenously with various concentrations of gemcitabine, nanoparticle formulation of Compound 1, or vehicle control (dissolved directly in D5W and dosed in mg of gemcitabine/compound 1 per kg of mouse body weight abbreviated as mpk) once weekly for 4 weeks (mice were dosed on day 0, 7, 14, and 21 with no treatments thereafter). […] Tumor volume was assessed by caliper measurement using the following formula: Tumor volume=width^2×length×0.52. Tumor growth inhibition (TGI) at day 28 was assessed using the following formula: […]. […]
structure (smiles),measurement,setting,value
"Nc1ccn([C@@H]2O[C@H](CO)[C@@H](O)C2(F)F)c(=O)n1 [gemcitabine, 2′,2′-difluoro-2′-deoxycytidine]",Tumor growth inhibition (TGI) at day 28,"40 mpk (152 μmol/kg) intravenously once weekly for 4 weeks (day 0, 7, 14, 21)",88%
same,Tumor growth inhibition (TGI) at day 28,"100 mpk (380 μmol/kg) intravenously once weekly for 4 weeks (day 0, 7, 14, 21)",98%

# Reference: patent US11306399B2, “Nanoparticle compositions” (JANUARY THERAPEUTICS, INC., priority 2019, dated 2022)
